# According to patent US20060069132A1, “Azolecarboxamide herbicides” (priority 2004, published 2006):
# Tests used:
# velvetleaf = assay: Test C pre-/postemergence herbicide test; format: in vivo, Abutilon theophrasti
# Procedure, shortened: (§1)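 Pre/post spray; non-phytotoxic solvent + surfactant. Post-timing 1–4 leaves, 2–18 cm. Read-out: visual % control vs untreated, day 12–14, greenhouse.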
# bermudagrass = assay: Test C pre-/postemergence herbicide test; format: in vivo, Cynodon dactylon; details: for Plant response rating, Bermudagrass / Plant response rating (0 = no effect, 100 = complete control), Bermudagrass: preemergence
# Procedure, shortened: as §1
# pigweed = assay: Test C pre-/postemergence herbicide test; format: in vivo, Amaranthus retroflexus; details: for Plant response rating, Pigweed / Plant response rating (0 = no effect, 100 = complete control), Pigweed: preemergence
# Procedure, shortened: as §1
# barnyardgrass = assay: Test C flooded paddy test; format: in vivo, Echinochloa crus-galli; details: for Plant response rating, Barnyardgrass: 500 g ai/ha, visual rating after 12 to 14 days
# Procedure, shortened: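 Ratings (0 = no effect, 100 = complete control) come from visual comparison with untreated plants after 12 to 14 days in the greenhouse. Treatment was postemergence at the 1- to 4-leaf stage (2–18 cm), or at the 2-leaf stage for the flooded paddy barnyardgrass.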
# [1] = system: smallflower umbrella sedge; assay: Test C flooded paddy test; format: in vivo, Cyperus difformis; details: for Plant response rating, Sedge, Umbrella: 500 g ai/ha, visual rating after 12 to 14 days
# [2] = system: common (oilseed) sunflower; assay: Test C pre-/postemergence herbicide test; format: in vivo, Helianthus annuus; details: for Plant response rating, Sunflower / Plant response rating (0 = no effect, 100 = complete control), Sunflower: preemergence
# Procedure, shortened: as §1
# yellow nutsedge = assay: Test C pre-/postemergence herbicide test; format: in vivo, Cyperus esculentus; details: for Plant response rating, Nutsedge, Yellow / Plant response rating (0 = no effect, 100 = complete control), Nutsedge, Yellow: preemergence
# Procedure, shortened: as §1
# morningglory = assay: Test C pre-/postemergence herbicide test; format: in vivo, Ipomoea coccinea; parameters: key to Plant response rating, Morningglory: 0 = no effect, 100 = complete control; details: for Plant response rating, Morningglory / Plant response rating (0 = no effect, 100 = complete control), Morningglory: preemergence
# Procedure, shortened: as §1
# soybean = assay: Test C pre-/postemergence herbicide test; format: in vivo, Glycine max; details: for Plant response rating, Soybean / Plant response rating (0 = no effect, 100 = complete control), Soybean: preemergence
# Procedure, shortened: as §1
# cocklebur = assay: Test C pre-/postemergence herbicide test; format: in vivo, Xanthium strumarium; details: for Plant response rating, Cocklebur / Plant response rating (0 = no effect, 100 = complete control), Cocklebur: preemergence
# Procedure, shortened: as §1
# giant foxtail = assay: Test C pre-/postemergence herbicide test; format: in vivo, Setaria faberi; details: for Plant response rating, Foxtail, Giant / Plant response rating (0 = no effect, 100 = complete control), Foxtail, Giant: preemergence
# Procedure, shortened: as §1
# [3] = 500 g ai/ha, scale 0 to 100 (0 no effect, 100 complete control), visual, 12 to 14 days
# [4] = 62 g ai/ha, scale 0 to 100 (0 no effect, 100 complete control)
# [5] = 125 g ai/ha, scale 0 to 100 (0 no effect, 100 complete control)
# [6] = 250 g ai/ha, scale of 0 to 100, 0 is no effect, 100 is complete control
# [7] = scale 0 to 100 (0 no effect, 100 complete control)
# [8] = Preemergence, 500 g ai/ha, scale 0 to 100, 0 no effect, 100 complete control
# [9] = 125 g ai/ha, scale 0 (no effect) to 100 (complete control), visual, 12 to 14 days
# [10] = 250 g ai/ha, scale 0 to 100 (0 no effect, 100 complete control), visual, 12 to 14 days
# [11] = 125 g ai/ha, scale of 0 to 100, 0 is no effect, 100 is complete control
compound,measurement,setting,value
CCC1=NN(C(C)(C)C)CC1C(=O)Nc1cc(C(=O)N(C)CC)ccc1F (racemic) [Compound 342],"Plant response rating, Velvetleaf","velvetleaf; 62 g ai/ha, preemergence, scale 0 to 100",50
same,"Plant response rating (0 = no effect, 100 = complete control), Velvetleaf","velvetleaf; 125 g ai/ha, preemergence",60
same,"Plant response rating, Velvetleaf","velvetleaf; 250 g ai/ha, scale 0-100, preemergence",100
same,"Plant response rating, Velvetleaf","velvetleaf; 500 g ai/ha, scale 0 to 100 (0 no effect, 100 complete control), visual, 12 to 14 days, preemergence",100
same,"Plant response rating, Bermudagrass","bermudagrass; 62 g ai/ha, scale 0 to 100, 0 no effect, 100 complete control",45
same,"Plant response rating (0 = no effect, 100 = complete control), Bermudagrass",bermudagrass; 125 g ai/ha,60
same,"Plant response rating, Bermudagrass","bermudagrass; 250 g ai/ha, scale 0-100",90
same,"Plant response rating, Bermudagrass",bermudagrass; [3],90
same,"Plant response rating, Pigweed","pigweed; 62 g ai/ha, scale 0 to 100",80
same,"Plant response rating (0 = no effect, 100 = complete control), Pigweed",pigweed; 125 g ai/ha,90
same,"Plant response rating, Pigweed","pigweed; 250 g ai/ha, scale 0-100",100
same,"Plant response rating, Pigweed",pigweed; [3],100
same,Barnyardgrass plant response rating,barnyardgrass; [4],20
same,Barnyardgrass plant response rating,barnyardgrass; [5],20
same,Barnyardgrass plant response rating,barnyardgrass; [6],50
same,"Plant response rating, Barnyardgrass",barnyardgrass; [7],60
same,"Sedge, Umbrella plant response rating","[1]; 62 g ai/ha, scale 0 to 100",40
same,"Sedge, Umbrella plant response rating",[1]; [5],50
same,"Sedge, Umbrella plant response rating",[1]; [6],70
same,"Plant response rating, Sedge, Umbrella",[1]; [7],80
same,"Plant response rating, Sunflower","[2]; 62 g ai/ha, scale 0 to 100",5
same,"Plant response rating (0 = no effect, 100 = complete control), Sunflower",[2]; 125 g ai/ha,20
same,"Plant response rating, Sunflower","[2]; 250 g ai/ha, scale 0-100",75
same,"Plant response rating, Sunflower",[2]; [3],100
same,"Plant response rating, Nutsedge, Yellow","yellow nutsedge; 62 g ai/ha, scale 0 to 100",0
same,"Plant response rating (0 = no effect, 100 = complete control), Nutsedge, Yellow",yellow nutsedge; 125 g ai/ha,0
same,"Plant response rating, Nutsedge, Yellow","yellow nutsedge; 250 g ai/ha, scale 0-100",40
same,"Plant response rating, Nutsedge, Yellow",yellow nutsedge; [3],60
same,"Plant response rating, Morningglory","morningglory; 62 g ai/ha, scale 0 to 100",0
same,"Plant response rating (0 = no effect, 100 = complete control), Morningglory",morningglory; 125 g ai/ha,5
same,"Plant response rating, Morningglory","morningglory; 250 g ai/ha, scale 0-100",70
same,"Plant response rating, Morningglory",morningglory; [3],100
same,"Plant response rating, Soybean","soybean; 62 g ai/ha, scale 0 to 100",10
same,"Plant response rating (0 = no effect, 100 = complete control), Soybean",soybean; 125 g ai/ha,60
same,"Plant response rating, Soybean","soybean; 250 g ai/ha, scale 0-100",100
same,"Plant response rating, Soybean",soybean; [3],100
same,"Plant response rating, Cocklebur","cocklebur; 62 g ai/ha, scale 0 to 100",10
same,"Plant response rating (0 = no effect, 100 = complete control), Cocklebur",cocklebur; 125 g ai/ha,30
same,"Plant response rating, Cocklebur","cocklebur; 250 g ai/ha, scale 0-100",60
same,"Plant response rating, Cocklebur",cocklebur; [3],100
same,"Plant response rating, Foxtail, Giant","giant foxtail; 62 g ai/ha, scale 0 to 100",0
same,"Plant response rating (0 = no effect, 100 = complete control), Foxtail, Giant",giant foxtail; 125 g ai/ha,40
same,"Plant response rating, Foxtail, Giant","giant foxtail; 250 g ai/ha, scale 0-100",55
same,"Plant response rating, Foxtail, Giant",giant foxtail; [3],70
CC(=NO)c1cccc(NC(=O)c2cc(C(C)(C)C)nn2C)c1 [Compound 102],"Plant response rating, Velvetleaf","velvetleaf; 125 g ai/ha, scale 0 (no effect) to 100 (complete control), visual, 12 to 14 days, preemergence",20
same,Velvetleaf plant response rating,velvetleaf; [8],60
same,"Plant response rating (0 = no effect, 100 = complete control), Bermudagrass",bermudagrass; 62 g ai/ha,100
same,"Plant response rating, Bermudagrass",bermudagrass; [9],100
same,"Plant response rating, Bermudagrass",bermudagrass; [10],100
same,Bermudagrass plant response rating,bermudagrass; [8],100
same,"Plant response rating (0 = no effect, 100 = complete control), Pigweed",pigweed; 62 g ai/ha,90
same,"Plant response rating, Pigweed",pigweed; [9],100
same,Pigweed plant response rating,pigweed; [8],100
same,Barnyardgrass plant response rating,barnyardgrass; [4],10
same,Barnyardgrass plant response rating,barnyardgrass; [11],50
same,Barnyardgrass plant response rating,barnyardgrass; [6],50
same,"Plant response rating, Barnyardgrass",barnyardgrass; [7],70
same,"Sedge, Umbrella plant response rating",[1]; [4],50
same,"Sedge, Umbrella plant response rating",[1]; [11],70
same,"Sedge, Umbrella plant response rating",[1]; [6],70
same,"Plant response rating, Sedge, Umbrella",[1]; [7],80
same,"Plant response rating (0 = no effect, 100 = complete control), Sunflower",[2]; 62 g ai/ha,0
same,"Plant response rating, Sunflower",[2]; [9],20
same,Sunflower plant response rating,[2]; [8],20
same,"Plant response rating (0 = no effect, 100 = complete control), Nutsedge, Yellow",yellow nutsedge; 62 g ai/ha,0
same,"Plant response rating, Nutsedge, Yellow",yellow nutsedge; [9],0
same,"Nutsedge, Yellow plant response rating",yellow nutsedge; [8],30
same,"Plant response rating (0 = no effect, 100 = complete control), Morningglory",morningglory; 62 g ai/ha,30
same,"Plant response rating, Morningglory",morningglory; [9],70
same,Morningglory plant response rating,morningglory; [8],80
same,"Plant response rating (0 = no effect, 100 = complete control), Soybean",soybean; 62 g ai/ha,0
same,"Plant response rating, Soybean",soybean; [9],0
same,Soybean plant response rating,soybean; [8],20
same,"Plant response rating (0 = no effect, 100 = complete control), Cocklebur",cocklebur; 62 g ai/ha,10
same,"Plant response rating, Cocklebur",cocklebur; [9],20
same,"Plant response rating, Cocklebur",cocklebur; [10],20
same,Cocklebur plant response rating,cocklebur; [8],70
same,"Plant response rating (0 = no effect, 100 = complete control), Foxtail, Giant",giant foxtail; 62 g ai/ha,10
same,"Plant response rating, Foxtail, Giant",giant foxtail; [9],50
same,"Plant response rating, Foxtail, Giant",giant foxtail; [10],80
same,"Foxtail, Giant plant response rating",giant foxtail; [8],80
